According to patent EP4635500A1, “THERAPEUTIC AGENT FOR BACTERIAL INFECTION” (Sumitomo Pharma Co., Ltd., priority 2022, dated 2024):
Where two headings read alike, the source gives them in different places.

Test system: P. aeruginosa
Experiment: MIC, broth microdilution, CDC/FDA Antibiotic Resistance Isolate Bank (Example 7, Tables 10, 15)
Assay type: cell-based
Conditions: for MIC: Pseudomonas aeruginosa, read-out: MIC
[1] = 26 metallo-carbapenemase-producing P. aeruginosa strains, β-lactamase inhibitor µg/mL in parentheses
[2] = 96 strains of P. aeruginosa, β-lactamase inhibitor µg/mL in parentheses

CO/N=C(\C(=O)N[C@@H]1C(=O)N2C(C(=O)[O-])=C(C[n+]3ccn4ncccc43)CS[C@H]12)c1nsc(N)n1 [Cefozopran, cefozopran]
4 µg/mL: MIC (P. aeruginosa KUB No. 5665, AR Bank # 232) | MIC (P. aeruginosa KUB No. 5669, AR Bank # 236) | MIC (P. aeruginosa KUB No. 5680, AR Bank # 247) | MIC (P. aeruginosa KUB No. 5686, AR Bank # 253) | MIC (P. aeruginosa KUB No. 5693, AR Bank # 260) | MIC (P. aeruginosa KUB No. 5694, AR Bank # 261) | MIC (P. aeruginosa KUB No. 5700, AR Bank # 267) | MIC (P. aeruginosa KUB No. 5703, AR Bank # 270)
> 64 µg/mL: MIC (P. aeruginosa KUB No. 5083, AR Bank # 250) | MIC (P. aeruginosa KUB No. 5551, AR Bank # 54) | MIC (P. aeruginosa KUB No. 5561, AR Bank # 64) | MIC (P. aeruginosa KUB No. 5587, AR Bank # 90) | MIC (P. aeruginosa KUB No. 5589, AR Bank # 92) | MIC (P. aeruginosa KUB No. 5597, AR Bank # 100) | MIC (P. aeruginosa KUB No. 5600, AR Bank # 103) | MIC (P. aeruginosa KUB No. 5605, AR Bank # 108) | MIC (P. aeruginosa KUB No. 5607, AR Bank # 110) | MIC (P. aeruginosa KUB No. 5608, AR Bank # 111) | MIC (P. aeruginosa KUB No. 5663, AR Bank # 230) | MIC (P. aeruginosa KUB No. 5664, AR Bank # 231) | MIC (P. aeruginosa KUB No. 5668, AR Bank # 235) | MIC (P. aeruginosa KUB No. 5672, AR Bank # 239) | MIC (P. aeruginosa KUB No. 5673, AR Bank # 240) | MIC (P. aeruginosa KUB No. 5674, AR Bank # 241) | MIC (P. aeruginosa KUB No. 5675, AR Bank # 242) | MIC (P. aeruginosa KUB No. 5676, AR Bank # 243) | MIC (P. aeruginosa KUB No. 5678, AR Bank # 245) | MIC (P. aeruginosa KUB No. 5679, AR Bank # 246) | MIC (P. aeruginosa KUB No. 5681, AR Bank # 248) | MIC (P. aeruginosa KUB No. 5682, AR Bank # 249) | MIC (P. aeruginosa KUB No. 5687, AR Bank # 254) | MIC (P. aeruginosa KUB No. 5688, AR Bank # 255) | MIC (P. aeruginosa KUB No. 5747, AR Bank # 351) | MIC (P. aeruginosa KUB No. 5748, AR Bank # 352) | MIC (P. aeruginosa KUB No. 5749, AR Bank # 353) | MIC (P. aeruginosa KUB No. 5752, AR Bank # 356) | MIC (P. aeruginosa KUB No. 5753, AR Bank # 357) | MIC (P. aeruginosa KUB No. 5785, AR Bank # 439) | MIC (P. aeruginosa KUB No. 5787, AR Bank # 441) | MIC (P. aeruginosa KUB No. 5788, AR Bank # 443)
2 µg/mL: MIC (P. aeruginosa KUB No. 5666, AR Bank # 23) | MIC (P. aeruginosa KUB No. 5667, AR Bank # 234) | MIC (P. aeruginosa KUB No. 5695, AR Bank # 262) | MIC (P. aeruginosa KUB No. 5696, AR Bank # 263)
1 µg/mL: MIC (P. aeruginosa KUB No. 5592, AR Bank # 95) | MIC (P. aeruginosa KUB No. 5671, AR Bank # 238) | MIC (P. aeruginosa KUB No. 5691, AR Bank # 258) | MIC (P. aeruginosa KUB No. 5692, AR Bank # 259) | MIC (P. aeruginosa KUB No. 5702, AR Bank # 269) | MIC (P. aeruginosa KUB No. 5704, AR Bank # 271)
32 µg(mL): MIC against 96 strains of P. aeruginosa MIC50 [2]
8 µg/mL: MIC (P. aeruginosa KUB No. 5677, AR Bank # 244) | MIC (P. aeruginosa KUB No. 5684, AR Bank # 251) | MIC (P. aeruginosa KUB No. 5690, AR Bank # 257) | MIC (P. aeruginosa KUB No. 5698, AR Bank # 265) | MIC (P. aeruginosa KUB No. 5699, AR Bank # 266) | MIC (P. aeruginosa KUB No. 5750, AR Bank # 354) | MIC (P. aeruginosa KUB No. 5756, AR Bank # 360)
32 µg/mL: MIC (P. aeruginosa KUB No. 5701, AR Bank # 268) | MIC (P. aeruginosa KUB No. 5786, AR Bank # 440)
0.5 µg/mL: MIC (P. aeruginosa KUB No. 579, AR Bank # 447) | MIC (P. aeruginosa KUB No. 5670, AR Bank # 237) | MIC (P. aeruginosa KUB No. 5689, AR Bank # 256) | MIC (P. aeruginosa KUB No. 5697, AR Bank # 264) | MIC (P. aeruginosa KUB No. 5705, AR Bank # 272)
64 µg/mL: MIC (P. aeruginosa KUB No. 5591, AR Bank # 94)
>64 µg(mL): MIC against 26 metallo-carbapenemase-producing strains MIC50 [1] | MIC against 26 metallo-carbapenemase-producing strains MIC90 [1] | MIC against 26 metallo-carbapenemase-producing strains MICrange [1] | MIC against 96 strains of P. aeruginosa MIC90 [2]
16 µg/mL: MIC (P. aeruginosa KUB No. 5602, AR Bank # 105) | MIC (P. aeruginosa KUB No. 5662, AR Bank # 229) | MIC (P. aeruginosa KUB No. 5685, AR Bank # 252) | MIC (P. aeruginosa KUB No. 5751, AR Bank # 355) | MIC (P. aeruginosa KUB No. 5754, AR Bank # 358) | MIC (P. aeruginosa KUB No. 5755, AR Bank # 359)
